Experimental data published in patent publication US10213429B2, “Imidazo-pyrazinyl derivatives useful as soluble guanylate cyclase activators” (Merck Sharp & Dohme Corp., priority 2015, dated 2019).

Legend:
[1] = biological target: T1, sGC α1/β1 heterodimer (Homo sapiens, UniProt Q02108+Q02153); test: Cell-Based sGC Functional Assay (CASA Assay), cGMP by HTRF in CHO-K1/sGC cells; settings: for Emax: CHO-K1, percent activation relative to maximum cGMP production of Compound A (= 100%), read-out: % Act.; for EC50: cGMP production, 1 hr at 37° C., 4P fit, presence or absence of 1 μM DETA-NO not given, read-out: IP (nM) (inflection point)
T1 construct: expressed in transfected cells; host or cells: CHO-K1 (clone #7, CHO-K1/sGC)
T1 sequence (Q02108 1-690): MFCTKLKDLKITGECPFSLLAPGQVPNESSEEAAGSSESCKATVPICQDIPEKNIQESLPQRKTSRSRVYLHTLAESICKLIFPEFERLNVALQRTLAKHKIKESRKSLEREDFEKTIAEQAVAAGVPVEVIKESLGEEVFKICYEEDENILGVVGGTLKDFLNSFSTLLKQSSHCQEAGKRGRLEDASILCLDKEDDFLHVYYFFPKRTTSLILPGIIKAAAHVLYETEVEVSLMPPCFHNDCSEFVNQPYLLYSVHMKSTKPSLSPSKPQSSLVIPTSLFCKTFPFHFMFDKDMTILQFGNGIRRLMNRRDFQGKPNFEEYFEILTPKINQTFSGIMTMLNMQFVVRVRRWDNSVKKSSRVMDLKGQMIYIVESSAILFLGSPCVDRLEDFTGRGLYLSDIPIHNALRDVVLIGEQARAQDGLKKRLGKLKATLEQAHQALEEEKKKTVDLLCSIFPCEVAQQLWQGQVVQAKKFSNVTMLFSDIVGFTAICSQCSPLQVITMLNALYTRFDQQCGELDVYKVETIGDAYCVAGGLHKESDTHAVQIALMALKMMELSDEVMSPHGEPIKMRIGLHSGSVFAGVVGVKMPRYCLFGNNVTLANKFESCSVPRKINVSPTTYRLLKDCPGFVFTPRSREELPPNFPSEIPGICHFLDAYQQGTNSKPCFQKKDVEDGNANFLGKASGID
T1 sequence (Q02153 1-619): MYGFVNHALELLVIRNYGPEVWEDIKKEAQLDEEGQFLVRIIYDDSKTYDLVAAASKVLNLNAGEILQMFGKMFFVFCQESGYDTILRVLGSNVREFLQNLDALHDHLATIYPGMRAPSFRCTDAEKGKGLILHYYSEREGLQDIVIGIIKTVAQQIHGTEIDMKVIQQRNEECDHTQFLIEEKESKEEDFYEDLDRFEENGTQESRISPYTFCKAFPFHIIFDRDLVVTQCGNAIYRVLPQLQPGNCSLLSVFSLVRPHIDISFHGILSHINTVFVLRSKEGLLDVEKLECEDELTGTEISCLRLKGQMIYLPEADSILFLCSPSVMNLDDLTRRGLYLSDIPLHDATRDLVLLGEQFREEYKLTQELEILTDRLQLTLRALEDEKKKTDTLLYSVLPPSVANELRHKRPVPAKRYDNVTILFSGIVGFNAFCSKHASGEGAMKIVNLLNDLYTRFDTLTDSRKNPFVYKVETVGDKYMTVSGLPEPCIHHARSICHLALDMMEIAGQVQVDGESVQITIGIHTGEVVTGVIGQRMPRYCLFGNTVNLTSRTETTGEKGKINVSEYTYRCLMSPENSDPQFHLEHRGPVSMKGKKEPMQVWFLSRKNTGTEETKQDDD
Procedure, shortened: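 CHO-K1 cells stably expressing human sGC α1/β1, in EBSS buffer with 5 mM MgCl2, 10 mM HEPES, 0.05% BSA and 0.5 mM IBMX, incubated with compound (2.5% DMSO) ± 1 μM DETA-NO, 1 h, 37 °C. Intracellular cGMP read by HTRF; activity as % of reference activator maximum, IP from 4-parameter fit.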

[2] = system: Spontaneously hypertensive rats (SHR); test: Acute Efficacy in Spontaneously Hypertensive Rats (SHR), telemetry blood pressure; type: in vivo, rat; settings: SHR male
Description: Acute Efficacy in Spontaneously Hypertensive Rats (SHR)
Spontaneously hypertensive rats (SHR, male, Charles River) were implanted with DSI TA11PA-C40 telemetry device (Data Sciences, Inc., St. Paul, Minn.) under isoflurane or ketamine/metomidine anesthesia. The telemetry unit catheter was inserted into the descending aorta via the femoral artery and the telemetry device was implanted subcutaneously in the left flank area. Animals were allowed to recover from surgery for 14 days before the start of any studies. Blood pressure, heart rate, and activity signals from conscious, freely moving rats were recorded continuously for 30 seconds every 10 minutes. On the day prior to administration of compound, a single oral dose of vehicle (10% transcutol/20% Cremophor/70% water) was administered to all animals to establish baseline control data. The blood pressure lowering efficacy of compound (PO) or vehicle was evaluated following a single oral gavage. Data were collected as hourly averages, and changes in blood pressure were calculated by subtracting control baseline data on an hourly basis. Animals were maintained on normal diet with a 12 hour light-dark cycle.
Maximum peak decreases of systolic blood pressure (SBP) in SHR at a particular P.O. dose (mpk milligrams per kilogram) for the following representative compounds are provided. • Category A=SBP in SHRs<20 mmHg; Category B=SBP in SHRs 20-40 mmHg; • Category C=SBP in SHRs>40 mmHg

| Compound | Emax [1] [%] | EC50 [1] [nM] | Cat. (maximum peak decrease of systolic blood pressure (SBP) in SHR) ([2]; single oral dose 3.0 mpk P.O.) | Cat. (maximum peak decrease of systolic blood pressure (SBP) in SHR) ([2]; single oral dose 1.0 mpk P.O.) | Cat. (maximum peak decrease of systolic blood pressure (SBP) in SHR) ([2]; single oral dose 0.3 mpk P.O.) |
| --- | --- | --- | --- | --- | --- |
| CC1(c2ccc(F)cn2)C(=O)Nc2nc(-c3cn4ccnc4c(CCC(F)(F)C(F)(F)F)n3)nc(O)c21 (single isomer, unassigned) [Example 18B, 5-(5-fluoropyridin-2-yl)-4-hydroxy-5-methyl-2-(8-(3,3,4,4,4-pentafluorobutyl)imidazo[1,2-a]pyrazin-6-yl)-5H-pyrrolo[2,3-d]pyrimidin-6(7H)-one] | 78 | 365 | A (Category A=SBP in SHRs<20 mmHg) | – | – |
| CC1(C(=O)NC2CC2)C(=O)Nc2nc(-c3cn4ccnc4c(Cc4ccc(F)cc4)n3)ncc21 (single isomer, unassigned) [Example 67A, N-Cyclopropyl-2-(8-(4-fluorobenzyl)imidazo[1,2-a]pyrazin-6-yl)-5-methyl-6-oxo-6,7-dihydro-5H-pyrrolo[2,3-d]pyrimidine-5-carboxamide] | 167 | 106 | – | B (Category B=SBP in SHRs 20-40 mmHg) | – |
| CC1(c2ccc(F)cc2)C(=O)Nc2nc(-c3cn4ccnc4c(CCC(F)(F)C(F)(F)F)n3)ncc21 (stereo not drawn) [Example 1A, 5-(4-Fluorophenyl)-5-methyl-2-(8-(3,3,4,4,4-pentafluorobutyl)imidazo[1,2-a]pyrazin-6-yl)-5H-pyrrolo[2,3-d]pyrimidin-6(7H)-one] | 121 | 228 | – | B (Category B=SBP in SHRs 20-40 mmHg) | – |
| CC1(c2ccc(F)cc2)C(=O)Nc2nc(-c3cn4ccnc4c(CCC(F)(F)C(F)(F)F)n3)nc(O)c21 (stereo not drawn) [Example 2A, 5-(4-Fluorophenyl)-4-hydroxy-5-methyl-2-(8-(3,3,4,4,4-pentafluorobutyl)imidazo[1,2-a]pyrazin-6-yl)-5H-pyrrolo[2,3-d]pyrimidin-6(7H)-one] | 102 | 433 | B (Category B=SBP in SHRs 20-40 mmHg) | – | – |
| CC1(c2ccc(Cl)cc2)C(=O)Nc2nc(-c3cn4ccnc4c(CCC(F)(F)C(F)(F)F)n3)ncc21 (stereo not drawn) [Example 3A, 5-(4-chlorophenyl)-5-methyl-2-(8-(3,3,4,4,4-pentafluorobutyl)imidazo[1,2-a]pyrazin-6-yl)-5H-pyrrolo[2,3-d]pyrimidin-6(7H)-one] | 118 | 34 | – | B (Category B=SBP in SHRs 20-40 mmHg) | – |
| CC1(c2ccc(Cl)cc2)C(=O)Nc2nc(-c3cn4ccnc4c(CCC(F)(F)C(F)(F)F)n3)nc(O)c21 (stereo not drawn) [Example 4A, 5-(4-chlorophenyl)-4-hydroxy-5-methyl-2-(8-(3,3,4,4,4-pentafluorobutyl)imidazo[1,2-a]pyrazin-6-yl)-5H-pyrrolo[2,3-d]pyrimidin-6(7H)-one] | 83 | 125 | B (Category B=SBP in SHRs 20-40 mmHg) | – | – |
| CC1(c2ccc(F)cn2)C(=O)Nc2nc(-c3cn4ccnc4c(Cc4ccc(F)cc4)n3)ncc21 (stereo not drawn) [Example 5B, 2-(8-(4-fluorobenzyl)imidazo[1,2-a]pyrazin-6-yl)-5-(5-fluoropyridin-2-yl)-5-methyl-5H-pyrrolo[2,3-d]pyrimidin-6(7H)-one] | 117 | 30 | – | – | B (Category B=SBP in SHRs 20-40 mmHg) |
| CCCCc1nc(-c2nc(O)c3c(n2)NC(=O)C3(C)c2ccc(F)cn2)cn2ccnc12 (stereo not drawn) [Example 83B, 2-(8-butylimidazo[1,2-a]pyrazin-6-yl)-5-(5-fluoropyridin-2-yl)-4-hydroxy-5-methyl-5H-pyrrolo[2,3-d]pyrimidin-6(7H)-one] | 109 | 234 | – | – | – |
| CC1(c2ccc(Cl)cc2)C(=O)Nc2nc(-c3cn4ccnc4cn3)nc(-c3ccccc3)c21 (stereo not drawn) [Example 84A, 5-(4-Chlorophenyl)-2-(imidazo[1,2-a]pyrazin-6-yl)-5-methyl-4-phenyl-5H-pyrrolo[2,3-d]pyrimidin-6(7H)-one] | 127 | 105 | – | – | – |
| CC1(c2ccc(F)cc2)C(=O)Nc2nc(-c3cn4ccnc4c(CCC(F)(F)C(F)(F)F)n3)nc(C#N)c21 (stereo not drawn) [Example 85A, 5-(4-Fluorophenyl)-5-methyl-6-oxo-2-(8-(3,3,4,4,4-pentafluorobutyl)imidazo[1,2-a]pyrazin-6-yl)-6,7-dihydro-5H-pyrrolo[2,3-d]pyrimidine-4-carbonitrile] | 97 | 257 | – | – | – |
| CC1(c2ccc(Cl)cn2)C(=O)Nc2nc(-c3cn4c(N)cnc4c(CCC(F)(F)C(F)(F)F)n3)ncc21 (stereo not drawn) [Example 87A, 2-(3-Amino-8-(3,3,4,4,4-pentafluorobutyl)imidazo[1,2-a]pyrazin-6-yl)-5-(5-chloropyridin-2-yl)-5-methyl-5H-pyrrolo[2,3-d]pyrimidin-6(7H)-one] | 130 | 316 | – | – | – |
| COCCOc1nc(-c2cn3ccnc3c(CCC(F)(F)C(F)(F)F)n2)nc2c1C(C)(c1ccc(F)cc1)C(=O)N2 (stereo not drawn) [Example 88A, 5-(4-Fluorophenyl)-4-(2-methoxyethoxy)-5-methyl-2-(8-(3,3,4,4,4-pentafluorobutyl)imidazo[1,2-a]pyrazin-6-yl)-5H-pyrrolo[2,3-d]pyrimidin-6(7H)-one] | 100 | 38 | – | – | – |
| COc1nc(-c2cn3ccnc3c(CCC(F)(F)C(F)(F)F)n2)nc2c1C(C)(c1ccc(F)cc1)C(=O)N2 (stereo not drawn) [Example 89A, 5-(4-Fluorophenyl)-4-methoxy-5-methyl-2-(8-(3,3,4,4,4-pentafluorobutyl)imidazo[1,2-a]pyrazin-6-yl)-5H-pyrrolo[2,3-d]pyrimidin-6(7H)-one] | 110 | 606 | – | – | – |
| CCCCc1nc(-c2ncc3c(n2)NC(=O)C3(C)c2ccc(F)cn2)cn2cc(C)nc12 (stereo not drawn) [Example 91B, 2-(8-Butyl-2-methylimidazo[1,2-a]pyrazin-6-yl)-5-(5-fluoropyridin-2-yl)-5-methyl-5H-pyrrolo[2,3-d]pyrimidin-6(7H)-one] | 117 | 330 | – | – | – |
| CCCOc1nc(-c2ncc3c(n2)NC(=O)C3(C)c2ccc(F)cc2)cn2ccnc12 (stereo not drawn) [Example 92A, 5-(4-Fluorophenyl)-5-methyl-2-(8-propoxyimidazo[1,2-a]pyrazin-6-yl)-5H-pyrrolo[2,3-d]pyrimidin-6(7H)-one] | 83 | 282 | – | – | – |
| CC1(c2ccc(Cl)cc2)C(=O)Nc2nc(-c3cn4ccnc4c(OCCC4CC4)n3)nc(O)c21 (stereo not drawn) [Example 94A, 5-(4-Chlorophenyl)-2-(8-(2-cyclopropylethoxy)imidazo[1,2-a]pyrazin-6-yl)-4-hydroxy-5-methyl-5H-pyrrolo[2,3-d]pyrimidin-6(7H)-one] | 90 | 136 | – | – | – |
